Test results taken from PMC7271948, “A baculoviral system for the production of human β-glucocerebrosidase enables atomic resolution analysis” (Acta Crystallographica. Section D, Structural Biology, 2020).

How the values were obtained:
[1] = molecular target: T1, β-glucocerebrosidase (GBA) (Homo sapiens, UniProt P04062); experiment: X-ray crystal structure at […] Å, crystals soaked with 2F-DNPGlc; format: binding
T1 construct: gene GBA1
T1 sequence (P04062 40-536): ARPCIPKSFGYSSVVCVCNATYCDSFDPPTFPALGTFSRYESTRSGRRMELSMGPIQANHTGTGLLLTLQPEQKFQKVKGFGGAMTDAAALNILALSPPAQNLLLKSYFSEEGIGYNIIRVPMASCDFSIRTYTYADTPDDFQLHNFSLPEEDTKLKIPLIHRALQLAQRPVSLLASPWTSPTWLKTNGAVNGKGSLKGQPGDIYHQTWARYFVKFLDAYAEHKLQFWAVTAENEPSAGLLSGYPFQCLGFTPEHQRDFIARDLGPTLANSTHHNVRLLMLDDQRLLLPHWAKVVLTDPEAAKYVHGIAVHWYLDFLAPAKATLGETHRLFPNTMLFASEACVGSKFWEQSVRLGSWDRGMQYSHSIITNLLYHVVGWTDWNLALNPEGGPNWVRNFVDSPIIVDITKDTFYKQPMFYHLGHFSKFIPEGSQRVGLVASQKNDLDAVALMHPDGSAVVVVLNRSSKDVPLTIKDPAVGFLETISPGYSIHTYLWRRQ

[2] = molecular target: T1, β-glucocerebrosidase (GBA); experiment: X-ray crystal structure at […] Å; IC50 against 4-MU-Glc hydrolysis at pH […]; format: biochemical

Row | Compound | X-ray crystal structure at 1.41 Å, crystals soaked with 2F-DNPGlc [1] | IC50 [2]
1 | O=[N+]([O-])c1ccc(O[C@@H]2O[C@H](CO)[C@@H](O)[C@H](O)[C@H]2F)c([N+](=O)[O-])c1 [2F-DNPGlc, 2,4-dinitrophenyl-2-deoxy-2-fluoro-β-D-glucopyranoside] | showing unambiguous electron density for covalent binding of the 2-deoxy-2-fluoroglucose moiety to the catalytic nucleophile | 
2 | OCC(CO)(CO)NCCCNC(CO)(CO)CO [BTP, bis-Tris propane] |  | 4.31 ± 0.42 mM
